IC50 data for one compound are collected here from ChEMBL document CHEMBL6109120, “Discovery of Novel SIK2/3 Inhibitors for the Potential Treatment of MEF2C+ Acute Myeloid Leukemia (AML)” (J Med Chem, 2025).

The structures appear in SMILES notation.

Assay [1] deals with Platelet-derived growth factor receptor alpha (Homo sapiens, UniProt P16234).
Description: Binding affinity to human PDGFRalpha by KINOMEscan assay
The target in assay [2] is T1, Cyclin-G-associated kinase (Homo sapiens, UniProt O14976).
T1 sequence (O14976 whole entry): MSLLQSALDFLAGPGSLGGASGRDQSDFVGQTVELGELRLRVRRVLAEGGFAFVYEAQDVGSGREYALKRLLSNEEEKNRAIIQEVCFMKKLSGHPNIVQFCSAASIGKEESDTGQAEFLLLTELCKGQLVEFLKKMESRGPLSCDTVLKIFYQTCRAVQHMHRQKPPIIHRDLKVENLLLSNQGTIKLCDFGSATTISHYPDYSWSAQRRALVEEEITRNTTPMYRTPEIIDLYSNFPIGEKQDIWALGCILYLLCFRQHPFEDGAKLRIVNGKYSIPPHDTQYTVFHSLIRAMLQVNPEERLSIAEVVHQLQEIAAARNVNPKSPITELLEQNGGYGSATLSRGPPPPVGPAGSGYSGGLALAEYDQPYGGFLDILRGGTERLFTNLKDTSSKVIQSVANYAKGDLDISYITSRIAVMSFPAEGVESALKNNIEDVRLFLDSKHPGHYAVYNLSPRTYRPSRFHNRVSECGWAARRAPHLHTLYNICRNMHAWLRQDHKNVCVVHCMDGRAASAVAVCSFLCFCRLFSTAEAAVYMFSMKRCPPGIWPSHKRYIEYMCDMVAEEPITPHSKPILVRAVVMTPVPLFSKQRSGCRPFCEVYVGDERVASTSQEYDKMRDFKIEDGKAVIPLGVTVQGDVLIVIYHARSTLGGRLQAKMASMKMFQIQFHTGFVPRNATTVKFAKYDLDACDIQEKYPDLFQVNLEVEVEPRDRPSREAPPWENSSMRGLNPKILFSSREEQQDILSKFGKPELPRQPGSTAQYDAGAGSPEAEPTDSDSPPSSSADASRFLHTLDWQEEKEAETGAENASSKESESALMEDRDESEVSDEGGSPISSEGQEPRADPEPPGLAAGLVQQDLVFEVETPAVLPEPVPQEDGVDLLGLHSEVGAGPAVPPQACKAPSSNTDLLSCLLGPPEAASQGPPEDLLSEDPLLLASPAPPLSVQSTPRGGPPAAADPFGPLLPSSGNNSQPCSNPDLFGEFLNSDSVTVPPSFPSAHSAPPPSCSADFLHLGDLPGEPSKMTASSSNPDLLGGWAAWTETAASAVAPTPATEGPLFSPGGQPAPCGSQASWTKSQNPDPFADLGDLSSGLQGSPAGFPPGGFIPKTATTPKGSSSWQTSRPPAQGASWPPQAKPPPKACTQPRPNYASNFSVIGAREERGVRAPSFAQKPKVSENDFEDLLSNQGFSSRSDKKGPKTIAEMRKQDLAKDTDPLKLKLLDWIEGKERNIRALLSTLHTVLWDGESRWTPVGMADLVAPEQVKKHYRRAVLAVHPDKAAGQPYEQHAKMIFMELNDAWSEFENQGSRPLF
Description: Binding affinity to human GAK by KINOMEscan assay

Assay [3] concerns the target T2, Serine/threonine-protein kinase ULK2 (Homo sapiens, UniProt Q8IYT8).
T2 sequence (Q8IYT8 whole entry): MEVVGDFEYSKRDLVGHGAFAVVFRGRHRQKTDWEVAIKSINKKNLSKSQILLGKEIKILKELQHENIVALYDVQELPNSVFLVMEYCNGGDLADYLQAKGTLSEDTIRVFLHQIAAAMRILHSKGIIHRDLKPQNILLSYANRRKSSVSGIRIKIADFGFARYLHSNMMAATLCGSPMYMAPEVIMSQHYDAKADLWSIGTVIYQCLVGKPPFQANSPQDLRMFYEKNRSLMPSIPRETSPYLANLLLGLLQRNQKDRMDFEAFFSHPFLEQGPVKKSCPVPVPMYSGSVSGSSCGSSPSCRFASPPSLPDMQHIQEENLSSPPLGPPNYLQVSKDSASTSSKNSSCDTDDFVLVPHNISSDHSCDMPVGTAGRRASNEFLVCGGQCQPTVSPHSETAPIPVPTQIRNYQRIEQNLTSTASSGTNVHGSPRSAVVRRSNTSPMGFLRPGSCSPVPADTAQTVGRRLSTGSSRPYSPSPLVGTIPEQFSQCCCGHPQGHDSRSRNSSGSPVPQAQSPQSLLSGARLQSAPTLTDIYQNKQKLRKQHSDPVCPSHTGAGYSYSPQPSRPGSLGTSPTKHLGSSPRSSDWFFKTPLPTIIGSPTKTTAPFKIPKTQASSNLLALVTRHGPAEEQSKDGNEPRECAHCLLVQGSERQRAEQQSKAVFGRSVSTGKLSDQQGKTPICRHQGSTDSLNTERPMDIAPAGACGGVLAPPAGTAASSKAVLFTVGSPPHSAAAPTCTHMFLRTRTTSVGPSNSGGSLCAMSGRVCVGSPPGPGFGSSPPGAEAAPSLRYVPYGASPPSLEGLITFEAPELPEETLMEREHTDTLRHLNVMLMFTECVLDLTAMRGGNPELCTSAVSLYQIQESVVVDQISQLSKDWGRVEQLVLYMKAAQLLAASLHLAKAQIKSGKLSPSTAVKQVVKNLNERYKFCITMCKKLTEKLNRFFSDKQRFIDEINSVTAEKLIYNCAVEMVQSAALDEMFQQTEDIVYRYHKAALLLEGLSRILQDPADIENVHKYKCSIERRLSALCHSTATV
Description: Binding affinity to human ULK2 by KINOMEscan assay

Another assay addresses Cytochrome P450 2C19 (Homo sapiens, UniProt P33261). Put plainly: Inhibition of CYP2C19 in human liver microsomes assessed as S-mephenytoin 4-hydroxylation reaction measured after 30 mins by LC/MS/MS analysis. The class given is ADME, Microsome. (Liver microsomes are vesicles of endoplasmic reticulum, rich in cytochrome P450 enzymes.)

Cytochrome P450 2C19, sequence (P33261 whole entry): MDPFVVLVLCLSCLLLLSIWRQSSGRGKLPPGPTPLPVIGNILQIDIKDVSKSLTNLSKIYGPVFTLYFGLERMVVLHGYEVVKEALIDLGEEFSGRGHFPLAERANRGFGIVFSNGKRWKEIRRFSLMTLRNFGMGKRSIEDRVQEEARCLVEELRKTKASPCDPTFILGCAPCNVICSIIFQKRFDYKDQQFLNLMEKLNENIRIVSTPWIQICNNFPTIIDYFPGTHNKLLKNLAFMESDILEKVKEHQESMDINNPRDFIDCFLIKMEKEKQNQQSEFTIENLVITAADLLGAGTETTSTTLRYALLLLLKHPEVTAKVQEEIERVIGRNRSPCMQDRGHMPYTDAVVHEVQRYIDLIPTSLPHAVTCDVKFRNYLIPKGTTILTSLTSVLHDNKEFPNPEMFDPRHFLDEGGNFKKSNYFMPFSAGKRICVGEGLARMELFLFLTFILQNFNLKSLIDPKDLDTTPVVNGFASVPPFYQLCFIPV
Platelet-derived growth factor receptor alpha, sequence (P16234 whole entry): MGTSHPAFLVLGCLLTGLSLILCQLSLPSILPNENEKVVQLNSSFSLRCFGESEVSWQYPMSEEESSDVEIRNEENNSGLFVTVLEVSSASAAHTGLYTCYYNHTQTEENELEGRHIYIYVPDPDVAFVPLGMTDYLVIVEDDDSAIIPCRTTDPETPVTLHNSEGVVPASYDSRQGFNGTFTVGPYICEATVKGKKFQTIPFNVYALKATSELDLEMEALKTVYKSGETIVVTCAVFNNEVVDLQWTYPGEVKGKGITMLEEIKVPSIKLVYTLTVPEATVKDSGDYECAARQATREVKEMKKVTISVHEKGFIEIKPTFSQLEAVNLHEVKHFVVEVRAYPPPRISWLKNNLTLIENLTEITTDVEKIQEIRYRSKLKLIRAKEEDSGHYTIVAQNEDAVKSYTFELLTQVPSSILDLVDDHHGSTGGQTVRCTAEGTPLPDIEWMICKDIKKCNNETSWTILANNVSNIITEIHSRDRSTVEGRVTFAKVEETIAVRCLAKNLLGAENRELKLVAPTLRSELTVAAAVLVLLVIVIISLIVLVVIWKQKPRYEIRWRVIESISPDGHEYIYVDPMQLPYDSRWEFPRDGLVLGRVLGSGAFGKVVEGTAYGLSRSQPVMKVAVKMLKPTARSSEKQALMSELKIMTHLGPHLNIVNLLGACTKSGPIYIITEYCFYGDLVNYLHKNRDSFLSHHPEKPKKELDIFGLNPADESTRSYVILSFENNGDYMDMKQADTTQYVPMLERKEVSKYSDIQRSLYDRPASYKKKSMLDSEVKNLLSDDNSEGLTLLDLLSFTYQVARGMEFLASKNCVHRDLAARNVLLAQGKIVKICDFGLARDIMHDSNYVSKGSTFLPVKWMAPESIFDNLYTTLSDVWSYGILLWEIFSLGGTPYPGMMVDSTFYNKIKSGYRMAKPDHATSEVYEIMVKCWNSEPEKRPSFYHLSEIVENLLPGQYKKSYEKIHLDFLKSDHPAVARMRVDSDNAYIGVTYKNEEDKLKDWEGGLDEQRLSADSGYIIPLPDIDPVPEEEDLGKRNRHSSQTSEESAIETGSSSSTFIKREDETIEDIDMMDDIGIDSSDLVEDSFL

For `COc1nc(-c2cc(-c3cnn(C)c3)cnc2N)cc2c1C(=O)N(CC(F)(F)F)CC2`, the IC50 (in general, the concentration that gives 50% inhibition) in assay [1] was 31 nM; in assay [2] it was 492 nM; in assay [3] it was 2080 nM; on Cytochrome P450 2C19 it was greater than 50000 nM.
